Assay results as given in patent US6599941B1, “Insecticide and insect repellant compositions” (priority 1993, dated 2003).

Experiment: Tolerability of mono-ethanolamine on humans
Assay type: in vivo
Conditions: when used in higher concentrations

NCCO [mono-ethanolamine, 2-aminoethanol]
irritation of eyes and mucus membranes: irritating to the eyes and mucus membranes
